Data published in patent US10206399B2, “Herbicidal composition comprising uracil compound as active ingredient” (Dongbu Farm Hannong Co., Ltd., priority 2012, dated 2019).
Where two headings read alike, the source gives them in different places.

Legend:
[1] = tested on: Digitaria sanguinalis; details: for plant mortality, measured value: Digitaria sanguinalis
Text: (§1) X is % damage by uracil compound (a) of formula 1 at the rate of application of p kg/ha; Y is % damage by conventional herbicidal compound (b) at the rate of application of q kg/ha; and E is the expected damage caused by compounds (a) and (b) at a rate of application of p and q kg/ha.
(§2) The expected activity for a given combination of two herbicides can be calculated using equation 1 above.

[2] = tested on: Abutilon theophrasti
Text: as §1, §2

[3] = tested on: Aeschynomene indica
Text: as §1, §2

[4] = tested on: Xanthium spinosum
Text: as §1, §2

[5] = tested on: Echinochloa crus; details: for plant mortality, measured value: Echinochloa crus
Text: as §1, §2

[6] = tested on: Echinochloa crus; assay: Paddy field farming herbicidal composition test, plant mortality; assay type: in vivo
Text: as §1, §2

[7] = tested on: Monochoria vaginalis; assay: as above; assay type: in vivo
Text: as §1, §2

[8] = tested on: Abutilon theophrasti; assay: whole plant or invertebrate
Text: as §1, §2

[9] = tested on: Aeschynomene indica; assay: whole plant or invertebrate
Text: as §1, §2

[10] = tested on: Xanthium spinosum; assay: whole plant or invertebrate
Text: as §1, §2

[11] = tested on: corn
[12] = tested on: Abutilon theophrasti; assay: Dry field farming herbicidal composition test, plant mortality; assay type: in vivo
Text: as §1, §2

[13] = tested on: Echinochloa crus; assay: as above; assay type: in vivo
Text: as §1, §2

[14] = tested on: Aeschynomene indica; assay: as above; assay type: in vivo
Text: as §1, §2

[15] = tested on: Digitaria sanguinalis; assay: as above; assay type: in vivo
Text: as §1, §2

[16] = Echinochloa, read-out: Echinochloa crus mortality, measured value
[17] = Pontederia vaginalis, read-out: Monochoria vaginalis mortality (measured value)
[18] = read-out: plant mortality, measured value, 20 g/ha
[19] = read-out: plant mortality, measured value, 40 g/ha
[20] = read-out: plant mortality, measured value, 80 g/ha
[21] = Abutilon theophrasti, read-out: Abutilon theophrasti mortality, measured value
[22] = Aeschynomene indica, read-out: Aeschynomene indica mortality, measured value
[23] = Digitaria sanguinalis, read-out: Digitaria sanguinalis mortality, measured value

O=C(O)COc1ccc(Cl)cc1Cl [2,4-D)]
Data (measured value) Digitaria sanguinalis ([1]; 200 g/ha): 0
Data (measured value) Digitaria sanguinalis ([1]; 400 g/ha): 0
Data (measured value) Abutilon theophrasti ([2]; 200 g/ha): 21
Data (measured value) Abutilon theophrasti ([2]; 400 g/ha): 47
Data (measured value) Aeschynomene indica ([3]; 200 g/ha): 24
Data (measured value) Aeschynomene indica ([3]; 400 g/ha): 51
Data (measured value) Xanthium spinosum ([4]; 200 g/ha): 22
Data (measured value) Xanthium spinosum ([4]; 400 g/ha): 50
Data (measured value) Echinochloa crus ([5]; 200 g/ha): 0
Data (measured value) Echinochloa crus ([5]; 400 g/ha): 0

COP(=S)(OC)SCC(=O)N(c1ccc(Cl)cc1)C(C)(C)C [Anilofos]
pest or weed control at 75 g/ha [6, 16]: 50%
pest or weed control at 75 g/ha [7, 17]: 0%

COc1cc(OC)nc(NC(=O)NS(=O)(=O)c2c(-c3nnn(C)n3)cnn2C)n1 [Azimsulfuron]
pest or weed control at 5 g/ha ([6]; Echinochloa, 5 g/ha, read-out: Echinochloa crus mortality (measured value)): 30%
pest or weed control at 5 g/ha ([7]; Pontederia vaginalis, 5 g/ha, read-out: Monochoria vaginalis mortality (measured value)): 50%

CS(=O)(=O)c1ccc(C(=O)C2=C(Sc3ccccc3)C3CCC(C3)C2=O)c(Cl)c1 (stereo not shown) [Benzobicyclon]
Echinochloa crus mortality, measured value ([6]; 50 g/ha): 0
Monochoria vaginalis mortality (measured value) ([7]; 50 g/ha): 30

CC(C)(NC(=O)C(Br)C(C)(C)C)c1ccccc1 (stereo not shown) [Bromobutide]
pest or weed control at 225 g/ha ([6]; Echinochloa, 225 g/ha, read-out: Echinochloa crus mortality (measured value)): 0%
pest or weed control at 225 g/ha ([7]; Pontederia vaginalis, 225 g/ha, read-out: Monochoria vaginalis mortality (measured value)): 50%

C=CCOC(=O)C(C)(C)OC(=O)c1cc(-n2c(=O)cc(C(F)(F)F)n(C)c2=O)ccc1Cl [Butafenacil]
plant mortality, measured value ([1]; 4 g/ha): 0
plant mortality, measured value ([1]; 20 g/ha): 12
plant mortality, measured value ([1]; 40 g/ha): 40
plant mortality, measured value ([1]; 80 g/ha): 70
plant mortality, measured value ([2]; 20 g/ha, Abutilon theophrasti): 55
pest or weed control at 20 g/ha [8, 18]: 55%
pest or weed control at 40 g/ha [8, 19]: 94%
pest or weed control at 80 g/ha [8, 20]: 100%
pest or weed control at 8 g/ha ([9]; read-out: plant mortality, measured value, 8 g/ha): 45%
pest or weed control at 20 g/ha [9, 18]: 51%
pest or weed control at 40 g/ha [9, 19]: 99%
pest or weed control at 80 g/ha [9, 20]: 100%
pest or weed control at 4 g/ha ([10]; read-out: plant mortality, measured value, 4 g/ha): 15%
pest or weed control at 16 g/ha ([10]; read-out: plant mortality, measured value, 16 g/ha): 54%
pest or weed control at 20 g/ha [10, 18]: 42%
pest or weed control at 40 g/ha [10, 19]: 90%
pest or weed control at 80 g/ha [10, 20]: 100%
plant mortality, measured value ([5]; 4 g/ha): 0
plant mortality, measured value ([5]; 8 g/ha): 0
plant mortality, measured value ([5]; 20 g/ha): 12
plant mortality, measured value ([5]; 40 g/ha): 30
plant mortality, measured value ([5]; 80 g/ha): 53

CCN(CC)C(=O)n1cnc(S(=O)(=O)c2c(C)cc(C)cc2C)n1 [Cafenstrole]
pest or weed control at 50 g/ha [6, 16]: 20%
pest or weed control at 50 g/ha [7, 17]: 30%

COCCOc1ccccc1S(=O)(=O)NC(=O)N=c1nc(OC)[nH]c(OC)n1 [Cinosulfuron]
pest or weed control at 10 g/ha [6, 16]: 20%
pest or weed control at 10 g/ha [7, 17]: 30%

COc1cc(OC)nc(NC(=O)NS(=O)(=O)Nc2ccccc2C(=O)C2CC2)n1 [Cyclosulfamuron]
pest or weed control at 11 g/ha ([6]; Echinochloa, 11 g/ha, read-out: Echinochloa crus mortality (measured value)): 30%
pest or weed control at 11 g/ha ([7]; Pontederia vaginalis, 11 g/ha, read-out: Monochoria vaginalis mortality (measured value)): 50%

CCN(C(=O)SCc1ccccc1)C(C)C(C)C (stereo not shown) [Esprocarb]
pest or weed control at 500 g/ha [6, 16]: 20%
pest or weed control at 500 g/ha [7, 17]: 30%

CCOc1ccccc1OS(=O)(=O)NC(=O)Nc1nc(OC)cc(OC)n1 [Ethoxysulfuron]
pest or weed control at 15 g/ha [6, 16]: 10%
pest or weed control at 15 g/ha [7, 17]: 20%

CCN(C(=O)n1nnn(-c2ccccc2Cl)c1=O)C1CCCCC1 [Fentrazamide]
pest or weed control at 50 g/ha [6, 16]: 20%
pest or weed control at 50 g/ha [7, 17]: 30%

COc1cc(OC)nc(NC(=O)NS(=O)(=O)c2c(C(=O)O)c(Cl)nn2C)n1 [Halosulfuron]
pest or weed control at 11 g/ha [6, 16]: 30%
pest or weed control at 11 g/ha [7, 17]: 30%

COc1cc(OC)nc(NC(=O)NS(=O)(=O)c2c(Cl)nc3ccccn23)n1 [Imazosulfuron]
pest or weed control at 18 g/ha ([6]; Echinochloa, 18 g/ha, read-out: Echinochloa crus mortality (measured value)): 20%
pest or weed control at 18 g/ha ([7]; Pontederia vaginalis, 18 g/ha, read-out: Monochoria vaginalis mortality (measured value)): 40%

CCC1(CC2(c3cccc(Cl)c3)CO2)C(=O)c2ccccc2C1=O (stereo not shown) [Indanofan]
pest or weed control at 37.5 g/ha [6, 16]: 25%
pest or weed control at 37.5 g/ha [7, 17]: 0%

CN(C(=O)COc1nc2ccccc2s1)c1ccccc1 [Mefenacet]
pest or weed control at 200 g/ha [6, 16]: 30%
pest or weed control at 200 g/ha [7, 17]: 30%

CS(=O)(=O)c1ccc(C(=O)C2C(=O)CCCC2=O)c([N+](=O)[O-])c1 [Mesotrione]
Corn mortality (measured value) ([11]; 15 g/ha): 0
Corn mortality, measured value ([11]; 15 g/ha): 0
Corn mortality (measured value) ([11]; 30 g/ha): 0
Corn mortality, measured value ([11]; 30 g/ha): 0
Corn mortality (measured value) ([11]; 60 g/ha): 1
Corn mortality, measured value ([11]; 60 g/ha): 1
Abutilon theophrasti mortality, measured value ([12]; 15 g/ha): 15
Abutilon theophrasti mortality, measured value ([12]; 30 g/ha): 29
Abutilon theophrasti mortality, measured value ([12]; 60 g/ha): 58
pest or weed control at 15 g/ha [12, 21]: 15%
pest or weed control at 30 g/ha [12, 21]: 29%
pest or weed control at 60 g/ha [12, 21]: 58%
Echinochloa crus mortality, measured value ([13]; 15 g/ha): 0
Echinochloa crus mortality, measured value ([13]; 30 g/ha): 5
Echinochloa crus mortality, measured value ([13]; 60 g/ha): 15
pest or weed control at 15 g/ha [13, 16]: 0%
pest or weed control at 30 g/ha [13, 16]: 5%
pest or weed control at 60 g/ha [13, 16]: 15%
Aeschynomene indica mortality, measured value ([14]; 15 g/ha): 11
Aeschynomene indica mortality, measured value ([14]; 30 g/ha): 27
Aeschynomene indica mortality, measured value ([14]; 60 g/ha): 54
pest or weed control at 15 g/ha [14, 22]: 11%
pest or weed control at 30 g/ha [14, 22]: 27%
pest or weed control at 60 g/ha [14, 22]: 54%
Digitaria sanguinalis mortality, measured value ([15]; 15 g/ha): 0
Digitaria sanguinalis mortality, measured value ([15]; 30 g/ha): 5
Digitaria sanguinalis mortality, measured value ([15]; 60 g/ha): 10
pest or weed control at 15 g/ha [15, 23]: 0%
pest or weed control at 30 g/ha [15, 23]: 5%
pest or weed control at 60 g/ha [15, 23]: 10%

COc1cc(OC)nc(NC(=O)NS(=O)(=O)c2c(C3=NOCC(C)O3)c(Cl)nn2C)n1 (stereo not shown) [Metazosulfuron]
Echinochloa crus mortality, measured value ([6]; 25 g/ha): 35
Monochoria vaginalis mortality (measured value) ([7]; 25 g/ha): 40

COc1cc(OC)nc(NC(=O)NS(=O)(=O)c2ncccc2C(=O)N(C)C)n1 [Nicosulfuron]
Corn mortality, measured value ([11]; 5 g/ha): 0
Corn mortality, measured value ([11]; 10 g/ha): 0
Corn mortality, measured value ([11]; 20 g/ha): 0
pest or weed control at 5 g/ha [12, 21]: 8%
pest or weed control at 10 g/ha [12, 21]: 26%
pest or weed control at 20 g/ha [12, 21]: 62%
pest or weed control at 5 g/ha [13, 16]: 10%
pest or weed control at 10 g/ha [13, 16]: 24%
pest or weed control at 20 g/ha [13, 16]: 50%
pest or weed control at 5 g/ha [14, 22]: 11%
pest or weed control at 10 g/ha [14, 22]: 30%
pest or weed control at 20 g/ha [14, 22]: 65%
pest or weed control at 5 g/ha [15, 23]: 7%
pest or weed control at 10 g/ha [15, 23]: 24%
pest or weed control at 20 g/ha [15, 23]: 50%

COc1cc(OC)nc(NC(=O)NS(=O)(=O)Nc2ccccc2C(=O)N(C)C)n1 [Orthosulfamuron]
Echinochloa crus mortality, measured value ([6]; 17.5 g/ha): 10
Monochoria vaginalis mortality (measured value) ([7]; 17.5 g/ha): 40

CC1=C(c2ccccc2)C(=O)N(C(C)(C)c2cc(Cl)cc(Cl)c2)CO1 [Oxaziclomefone]
pest or weed control at 12.5 g/ha ([6]; Echinochloa, 12.5 g/ha, read-out: Echinochloa crus mortality (measured value)): 30%
pest or weed control at 12.5 g/ha ([7]; Pontederia vaginalis, 12.5 g/ha, read-out: Monochoria vaginalis mortality (measured value)): 0%

CCCc1ccc2nc(Cl)c(S(=O)(=O)NC(=O)Nc3nc(OC)cc(OC)n3)n2n1 [Propyrisulfuron]
Echinochloa crus mortality, measured value ([6]; 18 g/ha): 45
Monochoria vaginalis mortality (measured value) ([7]; 18 g/ha): 45

COc1cccc(N(C)C(=S)Oc2cccc(C(C)(C)C)c2)n1 [Pyributicarb]
pest or weed control at 150 g/ha ([6]; Echinochloa, 150 g/ha, read-out: Echinochloa crus mortality (measured value)): 20%
pest or weed control at 150 g/ha ([7]; Pontederia vaginalis, 150 g/ha, read-out: Monochoria vaginalis mortality (measured value)): 20%

CON=C(C)c1cccc(Oc2nc(OC)cc(OC)n2)c1C(=O)O [Pyriminobac]
Echinochloa crus mortality, measured value ([6]; 11 g/ha): 50
Monochoria vaginalis mortality (measured value) ([7]; 11 g/ha): 0

COCc1cccc(C(O)c2nc(OC)cc(OC)n2)c1NS(=O)(=O)C(F)F (stereo not shown) [Pyrimisulfan]
Echinochloa crus mortality, measured value ([6]; 16.5 g/ha): 40
Monochoria vaginalis mortality (measured value) ([7]; 16.5 g/ha): 50

COc1cc(OC)nc(Sc2cccc3c2C(=O)OC3C)n1 (stereo not shown) [Pyritlalid]
Echinochloa crus mortality, measured value ([6]; 37.5 g/ha): 30
Monochoria vaginalis mortality (measured value) ([7]; 37.5 g/ha): 0

NC1=C(Cl)C(=O)c2ccccc2C1=O [Quinoclamine]
Echinochloa crus mortality, measured value ([6]; 450 g/ha): 0
Monochoria vaginalis mortality (measured value) ([7]; 450 g/ha): 0

Cc1nn(-c2cc(NS(C)(=O)=O)c(Cl)cc2Cl)c(=O)n1C(F)F [Sulfentrazone]
Corn mortality, measured value ([11]; 75 g/ha): 0
Corn mortality, measured value ([11]; 150 g/ha): 0
Corn mortality, measured value ([11]; 300 g/ha): 1
pest or weed control at 75 g/ha [12, 21]: 12%
pest or weed control at 150 g/ha [12, 21]: 25%
pest or weed control at 300 g/ha [12, 21]: 56%
pest or weed control at 75 g/ha [13, 16]: 0%
pest or weed control at 150 g/ha [13, 16]: 5%
pest or weed control at 300 g/ha [13, 16]: 20%
pest or weed control at 75 g/ha [14, 22]: 7%
pest or weed control at 150 g/ha [14, 22]: 25%
pest or weed control at 300 g/ha [14, 22]: 53%
pest or weed control at 75 g/ha [15, 23]: 0%
pest or weed control at 150 g/ha [15, 23]: 10%
pest or weed control at 300 g/ha [15, 23]: 28%

COc1nc(OC)nc(C(=O)c2cccc(F)c2N(C)S(=O)(=O)C(F)F)n1 [Triafamone]
Echinochloa crus mortality, measured value ([6]; 12.5 g/ha): 50
Monochoria vaginalis mortality (measured value) ([7]; 12.5 g/ha): 10

CCSC(=O)N1CCCCCC1 [molinate]
pest or weed control at 500 g/ha [6, 16]: 50%
pest or weed control at 500 g/ha [7, 17]: 0%
